In this assay the test system is Acinetobacter baumannii. The assay is described as follows: Antimicrobial activity against Acinetobacter baumannii. Format: functional.

Consider one compound from ChEMBL document CHEMBL1671711, “Serum and cerebrospinal fluid levels of colistin in pediatric patients” (Antimicrob Agents Chemother, 2010).

In brackets after ≈: the same amount, converted by molar mass.

The term MIC denotes the smallest concentration in the dilution series that meets the test's criterion for growth inhibition. With `C[C@@H](O)[C@H]1C(=O)N2C(C(=O)O)=C(S[C@@H]3CN[C@H](C(=O)N(C)C)C3)[C@H](C)[C@H]12` [MEROPENEM], the MIC was determined as 8 µg/mL (≈ 20.9 µM).
